Assay results reported in patent publication US11246873B2, “Directed differentiation of oligodendrocyte precursor cells to a myelinating cell fate” (The Scripps Research Institute, priority 2011, dated 2022).
“Also recorded” adds a separate entry of the source. Like-named read-outs stand apart in the source and are kept apart here.

How the values were obtained:
PLP induced EAE mice = conditions: for clinical severity versus vehicle, prophylactic mode: 10 mg/kg i.p. daily from the day of PLP injection; for dose dependence of clinical EAE scores: various doses i.p. (FTY720 1, 0.1, 0.01 mg/kg; interferon-β 10,000, 3000, 1000 U per mouse)
Description: (A-E) SJL mice were immunized with proteolipid peptide (PLP) and pertussis toxin and monitored daily with scoring on the standard clinical EAE scale (0-5). Compounds were administered daily for the duration of the study in saline at 10 mg/kg via intra-peritoneal injection (0.1 ml), starting on the day of the appearance of clinical EAE symptoms (day 10). […] Mean clinical EAE score and standard error of mean (SEM) are shown for each study group.
FIG. 25. […] EAE was induced in mice using PLP and pertussis toxin. […] Prophylactic dosing is defined as administration of compound commenced on the day of PLP injection. Error bars indicate standard deviation of the mean within each group of 8 mice.
(A-F) EAE was induced in mice using PLP and pertussis toxin. […] Error bars indicate standard deviation of the mean within each group of 8 mice.
(A-F) EAE was induced in mice by injecting PLP in complete Freund's adjuvant (CFA) and pertussis toxin, and the animals were scored daily for clinical severity of disease on a scale of 0-5. […] Error bars indicate standard deviation of the mean within each group of 8-10 mice.
10 week old SJL mice were immunized with PLP emulsion and pertusis toxin to induce EAE. […] Compounds were administered daily via intraperitoneal injection of 100 ul in sterile saline at 10 mg/kg alone or in combination with mycophenolate motefil in sterile saline at pH 5 at 20 mg/kg. Compound administration was initiated at disease onset (day 10) while mycophenolate motefil administration was initiated on Day 14. The mice were scored daily on a standard EAE scale of 0-5.
This model is most commonly used to evaluate the potential efficacy of immunomodulatory agents, but can also be used to determine the effectiveness of promyelinating agents that function by enhancing OPC differentiation (M. Fernandez et al., Proc Natl Acad Sci U.S.A, 101, 16363 (2004); X. Lee et al., J Neurosci, 27, 220 (2007); reviewed in R. J. Franklin, C. Ffrench-Constant, Nat Rev Neurosci, 9, 839 (2008)). […] We next evaluated efficacy when the drug is dosed therapeutically, by starting daily injections at the first sign of disease onset.
For the treatment of MS, an OPC differentiation inducing drug would most likely be introduced clinically as part of a combination therapy with an immunosuppressive drug. […] The former reduces T-cell proliferation and alters cytokine expression (A. Noronha, A. Toscas, M. A. Jensen, J Neuroimmunol, 46, 145 (1993); A. Noronha, A. Toscas, M. A. Jensen, Ann Neurol, 27, 207 (1990)), while the latter is an S1P agonist that regulates T-cell trafficking (V. Brinkmann et al., J Biol Chem, 277, 21453 (2002); V. Brinkmann et al., Nat Rev Drug Discov, 9, 883 (2010)).

muscarinic receptor = experiment: Carbachol co-treatment in compound induced OPC differentiation (MBP staining); type: cell-based, rat; conditions: compounds at EC90 (benztropine 2.3 uM), serial dilutions of carbachol, 6 days
Description: Following 6 days of treatment, cells were fixed and stained for MBP. Plates were imaged using the OPERA high content screening system and MBP staining was quantified as described. […] OPCs were plated in 384-well plates at 5000 cells per well in media containing basal PDGF-αα. Cells were equilibrated with Ca^2+ sensitive Fluo-3AM® dye in HBSS for 30 min. […] Ca^2+ influx was immediately measured using the FLIPR TETRA® system.
OPCs express mAChRs, predominantly subtypes M1, M3, and M5 (F. Ragheb et al., J Neurochem, 77, 1396 (2001)). […] Activation of M1 and M3 mAChRs is coupled to downstream signal transduction events through phospholipase C, which results in increased intracellular calcium concentrations (F. Ragheb et al., J Neurochem, 77, 1396 (2001)) (FIG. 23C). M2 and M4 mAChR activation inhibits adenylatecyclase, leading to decreased intracellular cAMP levels (C. C. Felder, FASEB J, 9, 619 (1995); M. Lopez-Ilasaca et al., Science, 275, 394 (1997)). […] Acetylcholine is a known regulator of OPC proliferation and, as such, muscarinic receptor subtypes represent a reasonable class of therapeutic targets for the modulation of OPC proliferation and differentiation (F. De Angelis et al., Dev Neurobiol, (2011)).

OPCs = experiment: Gene expression profile of treated OPCs (Affymetrix rat genome arrays); type: cell-based; conditions: 6 days
Description: FIG. 15. Gene expression profile of OPCs differentiated to oligodendrocytes by benztropine treatment. […] OPCs from the same passage were also pelleted and frozen. Total RNA was isolated from the cells and gene expression analysis was performed using rat genome arrays from Affymetrix. […] Data are represented as fold change over DMSO treated controls.
(A) Increased expression (fold change) of mature oligodendrocyte genes in compound treated cells as compared to DMSO treated cells. (B) Decreased expression (fold change) of OPC genes in compound treated cells as compared to DMSO treated cells.
Benztropine-induced in vitro differentiation of rodent OPCS was confirmed by evaluating the transcription and translation levels of the oligodendrocyte specific markers MBP and myelin oligodendroglial glycoprotein (MOG) by RT-PCR and Western blot analysis, respectively (FIGS. 7B and 13). Additionally, in vitro OPC differentiation activity was assessed by immunofluorescent analysis using multiple markers specifically expressed in mature oligodendrocytes (including MBP, MOG, 2′,3′-cyclic-nucleotide 3′-phosphodiesterase (CNP), […] (GalC), oligodendrocyte marker O1 (O1) and oligodendrocyte marker O4 (O4)) following six days of compound treatment (FIG. 14).

splenocytes of EAE mice = conditions: mouse, in vivo, ip, 10 mg/kg
Description: (A-K) EAE was induced in mice by injecting PLP and pertussis toxin. […] Total splenocytes were isolated from the mice, stimulated with PMA and ionomycin, and analyzed for various populations of immune cells and cytokine secretion after 48 hours. Protein transport was blocked in cells used for cytokine analysis using Monoeiosin. […] Error bars indicate standard deviation of the mean within each group of 5 mice.
(§1) The primary immunological processes involved in MS and EAE are T-cell mediated and the primary treatment paradigms are based on immunomodulatory drugs (T. Kopadze et al., Arch Neurol, 63, 1572 (2006); J. M. Greer et al., J Immunol, 180, 6402 (2007), M. P. Pender and J. M. Greer, curr Allergy Asthma Rep, 7, 285 (2007)).

[1] = test system: splenocytes of normal mice; experiment: Immune cell populations and cytokine production in splenocytes of normal mice; type: in vivo, mouse; conditions: 10 mg/kg i.p., 14 days; for cytokine production (IL2, IL10, TNF, IFN-γ producing CD4+ T-cells) / number of B cells: 10 mg/kg
Description: Total splenocytes were isolated from the mice, stimulated with PMA and ionomycin and analyzed for various populations of immune cells and cytokine secretion after 48 hrs. Protein transport was blocked in cells used for cytokine analysis using monoeiosin. […] Error bars indicate standard deviation of the mean within each group of 5 mice.
as §1

SMILES	effect on clinical severity scores at 0.1 mg/kg (PLP induced EAE mice; 0.1 mg/kg)	clinical severity versus vehicle, prophylactic mode (PLP induced EAE mice)	clinical severity versus vehicle, prophylactic mode (PLP induced EAE mice; listed as Benztropine)	mean maximal clinical EAE score in relapse, day 25 (PLP induced EAE mice; SJL mice, scale 0-5, compounds 10 mg/kg i.p. daily from day 10, mycophenolate mofetil 20 mg/kg from day 14, mean ± SEM)	most effective dose in decreasing clinical severity scores (PLP induced EAE mice; dose response in EAE model)	general toxicity (PLP induced EAE mice; mouse, in vivo, 10 mg/kg)	dose dependence of clinical EAE scores (PLP induced EAE mice)	dose dependence of clinical EAE scores (PLP induced EAE mice; listed as Benztropine)	effect of carbachol on compound induced OPC differentiation (muscarinic receptor)	effect of carbachol on compound induced OPC differentiation (muscarinic receptor; listed as benzatropine)	expression of OPC genes and mature oligodendrocyte genes (OPCs; versus DMSO)	global clustering of gene expression profiles (OPCs; benztropine 2.3 uM)	number of total splenocytes, CD4+, CD8+, CD4+/CD44Hi and CD8+/CD44Hi T-cells (splenocytes of EAE mice)	number of total splenocytes, CD4+, CD8+, CD4+/CD44Hi and CD8+/CD44Hi T-cells [1]	cytokine production (IL2, IL10, TNF, IFN-γ producing CD4+ T-cells) [1]	number of B cells [1]	cytokine production (IL2, IL10, TNF, IFN-γ producing CD4+ T-cells) ([1]; listed as Benztropine)	number of B cells ([1]; listed as Benztropine)	recovery time following the acute phase (PLP induced EAE mice; 10 mg/kg i.p. daily from day 10)	mean maximal clinical EAE score in relapse, day 26 (PLP induced EAE mice; SJL mice, scale 0-5, 10 mg/kg i.p. daily from day 10, mean ± SEM)
CN1[C@@H]2CC[C@H]1C[C@@H](OC(c1ccccc1)c1ccccc1)C2 [benztropine]	no effect	significantly decreased clinical severity in both acute and relapse phase	dramatically decreased the severity of the acute phase of disease and virtually eliminated the observation of a relapse phase; also recorded: decreased the clinical severity of disease	0.2±0.2	12.5 mg/kg	general toxicity was not observed	Dose dependent activity	dose dependent efficacy	inhibited; also recorded: Potent inhibition; also recorded: antagonizes	dose dependent inhibition	Downregulation of OPC specific genes required for proliferation; also recorded: downregulation of OPC genes and an upregulation of mature oligodendrocyte genes	cluster with those obtained from T3 treated positive control cells; also recorded: clustering of benztropine treated samples with thyroid hormone treated samples	no effect	no effect	no effect on cytokine production	minor but significant decrease	no effect	no effect	–	–
CN1CCN(CCCN2c3ccccc3Sc3ccc(C(F)(F)F)cc32)CC1 [trifluoperazine]	–	–	–	–	–	–	–	–	did not inhibit; also recorded: no effect	–	–	–	–	–	–	–	–	–	modest decrease	0.4±0.4
